This is an account of results in patent US6482410B1, “Cytotactin derivatives that stimulate attachment and neurite outgrowth, and methods of making same” (The Scripps Research Institute, priority 1994, dated 2002).

Experiment [1] has as its system chicken fibroblast SL29 cells. As to the kind of experiment: Cell attachment inhibition assay, fibroblasts on CT or CT:GST fusion proteins. In kind it is cell-based. The conditions noted are these: for inhibition of cell attachment to intact CT: RGD peptides 1 mg/ml, JG22 50 μg/ml, FIG. 2; for effect on cell attachment to CTfg substrate / effect on cell attachment to CTfn3 substrate / effect on cell attachment to CTfn6 substrate: equimolar substrates. The procedure: In the cell attachment inhibition assay, a single cell suspension was incubated with a potential inhibitor and then allowed to settle for a fixed period of time onto a solid support that has been coated with the different proteins to be tested (Friedlander, et al., J. Cell Biol. 107: 2329-2340 (1988)). After removing the unbound and loosely bound cells by washing, the attachment and morphology of those cells remaining on the dish were analyzed.
In the cell attachment inhibition assays, cells were incubated with soluble RGD peptides and/or a monoclonal antibody prior to incubation with solid support.
The inhibitors tested were the RGD-containing soluble peptides, GRGDSP and GRGDTP and the mAb JG22 (Developmental Studies Hybridoma Bank at Department of Pharmacology and Molecular Sciences, Johns Hopkins University School of Medicine, Baltimore, Md.). JG22 is a mouse hybridoma which binds to many types of chicken cells, including fibroblasts and muscle, and is specific to chicken (Greve, et al., J. Cell. Biochem. 18: 221-229 (1982)). JG22 is known to perturb cell attachment to extracellular matrix proteins and disrupts the function of the β1 integrin.
The cell attachment inhibition assay was performed essentially as described for the cell attachment assay in Example 5.B., but with the following modifications.
The solid support and cells were prepared as described in Example 5.B. Again, the initial assay was performed using only intact CT for the preparation of the solid support. The inhibitors tested, GRGDSP, GRGDTP, and the mAb JG22, were admixed with separate aliquots of the chicken fibroblast SL29 and DRG cells prior to addition to the solid support containing intact CT. The RGD-containing peptides were added at a final concentration of 1 mg/ml. The mAb JG22 was added at a final concentration of 50 μg/ml. A combination of each of the RGD-containing peptides and mAb JG22 were also incubated with the fibroblast and DRG cells. The cells and potential inhibitors were incubated for 10 minutes at room temperature and then added to the solid support. Fibroblast and DRG cells without inhibitors were also added to the solid support.
After incubation at 37° C. in 5% CO2 for 1 hour, the solid supports were washed three times in PBS with gentle swirling to remove unattached cells. The cells attached to the solid support were fixed in 1% (v/v) glutaraldehyde in PBS and viewed by phase contrast microscopy. The attached cells were counted using a 10× objective and with an eyepiece reticle. Cells were counted in four fields per adsorbed protein spot. Each protein was tested in three separate spots. The number of cells bound was expressed as the average of the twelve measurements±the standard deviation.
The cell attachment inhibition assay was repeated as described above but using all of the CT:GST fusion proteins in place of intact CT for the preparation of the solid support as described in Example 1.
Cell attachment assays were performed essentially as follows. The chicken fibroblast cell line SL29 was grown to confluence in DMEM with 10% FCS and penicillin/streptomycin. The cells were passaged the night before the assay and seeded at a density of 1:2. Cells were harvested in calcium, magnesium free Hank's balanced salt solution (CMF-HBSS) with 20 mM Hepes buffer and 5 mM EDTA added. The cells were then washed in attachment buffer (CMF-HBSS, 10 mM Hepes, 1 mM CaCl2, 1 mM MgCl2, 0.1 mM MnCl2, 2% BSA) three times, counted in a hemocytometer, resuspended to a density of 6×10^5 cells/ml. Dorsal root ganglion (DRG) neurons were prepared for attachment assays as described in Example 5, but were washed and resuspended at a density of 6×10^5 cells/ml in attachment buffer. Inhibitors of attachment were added at this time.
To some samples GRGDSP (SEQ ID NO 11) or GRGDTP (SEQ ID NO 12) peptide was added at a concentration of 1 mg/ml. […]

Experiment [2] deals with type I collagen. The conditions noted are these: Dedhar et al. 1987; Hynes 1992; cited from earlier work.
In experiment [3] the test system is dorsal root ganglia (DRG) neurons. Description: Two-dimensional neurite outgrowth assay, DRG, 15 hours. In kind it is cell-based, chicken. To be noted: DRG neurons. The procedure:
Dorsal root ganglia (DRG) cells or forebrain neurons were prepared for the cell attachment assays as follows. DRG from day 6 chicken embryos or forebrains from day 7 chicken embryos were dissected into HBSS. The tissue was pelleted by centrifugation and resuspended in CMF-HBSS and incubated at 37° C. for 10 minutes. The tissue was pelleted again and resuspended in CMF-HBSS containing 0.08% trypsin and allowed to trypsinize for 20 minutes at 37° C. An equal volume of DMEM/F12, 10% FCS, 20 ng/ml nerve growth factor (NGF) (for DRG cells only), 10 μg/ml gentamycin (10% medium) was added, and the tissue was pelleted and resuspended in 2 ml of the 10% medium. The cells were triturated with a fire-polished Pasteur pipette for 15 strokes, and the cells were washed and resuspended in 10 ml of 10% medium. DRG cells were plated in a 10 cm tissue culture dish and incubated for 1 hour at 37° C. in 5% CO2, to allow for attachment of contaminating fibroblasts.
After replating, the cells were harvested, pelleted and washed three times in DMEM/F12, 1% fetal calf serum (FCS), 20 ng/ml NGF (for DRG cells only), 10 μg/ml gentamycin (1% medium), and the number of cells determined using a hemocytometer. The DRG were resuspended to a density of 6×10^5 cells/ml in attachment buffer. The neurons were resuspended to a density of 2×10^4 cells/ml in 1% medium and added to substrates and placed at 37° C., 5% CO2 for 15 hours.
After the growth period, the dishes were gently rinsed with PBS to remove unbound cells, fixed with 1% glutaraldehyde, and viewed by phase contrast microscopy. Ten to forty cells were analyzed for each substrate. Cells were judged as neurite-bearing if the length of the processes was greater than one cell diameter. All cells with neurites were photographed with a 20× objective and total neurite length per neurite-bearing cell was derived from the photographic prints. Percentage of neuronal sprouting was calculated from at least six experiments. Neurite length was calculated from at least three experiments.
This extensive neurite outgrowth after 40 hours made quantitation of the percentage of neurite-bearing cells and neurite length difficult. To analyze quantitatively the effect of CT/TN fusion proteins on DRG neurite outgrowth, DRG cells were therefore plated at low density on CT/TN or CT/TN fragments and analyzed after 15 hours in culture for the percentage of cells that sprouted neurites greater than one cell diameter and for the everage neurite length per neuron. These conditions enhanced the number of isolated cells and discouraged the cell-cell interactions and fasciculation that occurred in the long-term cultures.
The proteins used in the neurite outgrowth assays are the same as those used in the cell attachment assays. […] In addition, poly-L-lysine was adsorbed to the solid support. […] Any cells adhering to the solid support were examined for sprouting and neurite length as defined herein.
Proteins used in the neurite outgrowth assays were prepared as described in Example 5.A.2.
Dorsal root ganglia (DRG) from day 6 chicken embryos were prepared as described in Example 5.A.4. For the neurite outgrowth assays, the DRG were resuspended at a density of 2×10^4 cells/ml in 1% medium, added to solid support, and placed at 37° C. in 5% CO2 for 15 hours. After the attachment and growth period, the dishes were gently rinsed with PBS to remove unbound cells, fixed with 1% (v/v) glutaraldehyde, and viewed by phase contrast microscopy. Ten to thirty cells were analyzed for each adsorbed protein spot. Cells were judged as neurite-bearing if the length of the processes were greater than one cell diameter. All cells with neurites were photographed with a 40× objective and the total neurite length per neurite-bearing cell was derived from the prints. The percent of cells that were sprouting and the average neurite length was derived from six and three independent experiments, respectively. […]

Entries after “also recorded” stand apart in the source; their conditions may differ. No end group written: not given here.

Turning to GRGDTP [GRGDTP], the “inhibition of SL29 attachment to CT/TN, further analysis” value in experiment [1] (1 mg/ml GRGDTP peptide) was 33%. In experiment [1], the “inhibition of cell attachment to intact CT” value turned out to be 70%. Further, in experiment [1] (inhibitor added before plating), the “effect on cell attachment to CTfn5-6 substrate” value is given as “unaffected”, the “effect on cell attachment to CTfg substrate” value was “unaffected”, the “effect on cell attachment to CTfn3 substrate” value is reported as “completely inhibited; also recorded: selectively inhibited” and the “effect on cell attachment to CTfn6 substrate” value was “not effective; also recorded: ineffective”. Also, the “inhibition of cell attachment to collagen I” value in experiment [2] is “active inhibitor; also recorded: inhibit binding to collagen I”. Besides, in experiment [3], the “effect on neurite outgrowth on CTfn3 or CTfn6 substrates” value is listed as “inhibited neurite outgrowth” and the “effect on neurite outgrowth on polylysine-coated substrates” value is “not on polylysine-coated substrates”.
As to Gly-Arg-Gly-Asp-Ser-Pro [GRGDSP], in experiment [1], the “inhibition of cell attachment to intact CT” value was 73%. Also, in experiment [1] (inhibitor added before plating), the “effect on cell attachment to CTfg substrate” value is “unaffected”, the “effect on cell attachment to CTfn3 substrate” value is “completely inhibited” and the “effect on cell attachment to CTfn6 substrate” value is “only partially inhibited; also recorded: could inhibit”. The “inhibition of cell attachment to collagen I” value in experiment [2] was “far less effective inhibitor; also recorded: had no effect; also recorded: generally has no effect”.
